# Data reported in article PMC5893540, “Mechanistic insights into allosteric regulation of the A2A adenosine G protein-coupled receptor by physiological cations” (Nature Communications, 2018).
# Values joined by “and” are separate entries in the source; they are usually repeats but may differ in a detail not shown here. Equal values may be shown once. “Also recorded” adds a separate entry of the source. Read-outs that look alike come from different tables or passages of the source.
# What was measured:
# A2AR + Gs = target: T1, A2AR + Gs (Homo sapiens, UniProt P29274, V229C); assay: [3H]NECA binding in A2AR/Gs-infected Sf9 membranes; settings: for effect of cation on specific [3H]NECA binding / EC50: 10 nM [3H]NECA; for effect of cation on specific [3H]NECA binding: increasing cation concentration; for effect on [3H]NECA high affinity saturation: 2.5 mM cation; for EC50: read-out: half-maximal cation concentration for enhancement of [3H]NECA binding, 100 mM NaCl
# T1 construct: Flag (N); TEV site (N); His10 (H10) (C); expressed in transfected cells; host or cells: Sf9 insect cells, baculovirus co-infection (A2AR, Gαs, Gβγ); membranes
# Excerpt: The above ^19F NMR observations are further recapitulated in radioligand binding assays in Sf9 cell membranes in which the identical A2AR construct was co-expressed with the heterotrimeric stimulatory G protein, Gαsβγ.
# Error bars for radioligand binding assays are defined based on three replicates
# BTFMA-labeled A2AR-V229C = target: T2, BTFMA-labeled A2AR-V229C (Homo sapiens, UniProt P29274, V229C); assay: 19F NMR of functional state populations (S1-2, S3, S3'); settings: for effect on active state population: 20 mM cation, saturating NECA and Gαs peptide, 100 mM NaCl; for effect on populations of functional states: apo A2AR in MNG-3 micelles, divalent cations 100–500 mM, KCl with 10 or 100 mM NaCl
# T2 construct: alpha-factor secretion leader (Fα-Factor) (N); Flag (N); TEV site (N); His10 (H10) (C); made in house; host or cells: Pichia pastoris SMD 1163
# Method: Here, spectra are deconvolved into three resonances, referred to as S1−2, S3, and S3′, in keeping with previously published work[1].
# NMR samples typically consisted of 250 μL volumes of 25–200 μM A2AR-V229C in 50 mM HEPES buffer (pH 7.4) and 100 mM NaCl, doped with 10% D2O. The receptor was stabilized in 0.1% MNG-3 and 0.02% CHS. All ^19F NMR experiments were performed on a 600 MHz Varian Inova spectrometer using a cryogenic triple resonance probe, with the high frequency channel tunable to either ^1H or ^19F. […] Most spectra were acquired with 10,000–50,000 scans depending on sample concentration. Processing typically involved zero filling, and exponential apodization equivalent to 20 Hz line broadening.
# apo A2AR-V229C [1] = target: T3, apo A2AR-V229C (Homo sapiens, UniProt P29274, V229C); assay: 25Mg NMR line width binding isotherm and Ca2+ competition; parameters: alpha-factor secretion leader (Fα-Factor) (N); Flag (N); TEV site (N); His10 (H10) (C); made in house; host or cells: Pichia pastoris SMD 1163
# Method: The experiment was performed on an Agilent DD2-600 NMR, equipped with a 10 mm low gamma direct detect probe and low frequency pre-amp. The experimental parameters used were as follows: 20 °C, a Larmor frequency of 36.72 MHz, a spectral width of 2.5 kHz, 1.1 s acquisition time, 0.5 s relaxation time, a 30 µs 90° excitation pulse, and between 128 and 2048 scans depending on the signal-to-noise ratio. For the Kd determination of Mg^2+ the following protocol was used: A 1 M MgCl2 solution with 10 mM DyCl3 in D2O was used as a reference and was placed in a 5-mm OD tube. A sample of 1.5 mL of the protein solution was placed in a 10-mm OD NMR tube. The reference tube was thoroughly cleaned and inserted into the 10-mm tube and centered with a plastic cap. Titration volumes of 3–37 µL of 4.64 M MgCl2 were added directly to the 10-mm tube which was then gently mixed using a vortex shaker. The sample was allowed to equilibrate in the magnet for 10 min at the set temperature and the sample was then locked, tuned, gradient shimmed and acquired. […] The sample was allowed to equilibrate at the set temperature in the magnet for 10 min and then locked, tuned, gradient shimmed and acquired. The Kd and Ki values were determined, using GraphPad Prism 6 software, by fitting the data to the formula, y = A × x/(Kd + x), where x represents the cation concentration.
# apo A2AR-V229C [2] = target: T3, apo A2AR-V229C; assay: 23Na NMR binding isotherm (line width / chemical shift)
# Method: Relaxation dispersions associated with ^23Na CPMG experiments, shown in Fig. 2e, provide an additional measure of cation binding and exchange dynamics.
# The experiments were performed on a 600 MHz Varian VNMRS spectrometer using a room temperature XH broadband probe (X-nucleus on the inner coil). […] An external ^23Na reference was prepared by mixing 50 mM NaCl and 50 mM TmCl3 in equal volumes prior to loading into the coaxial insert. […] Information regarding binding can be reliably obtained by observing the shift of the free peak and line broadening associated with fast exchange between “free” and “bound” states.
# T1 sequence (P29274 1-316 V229C limits assumed): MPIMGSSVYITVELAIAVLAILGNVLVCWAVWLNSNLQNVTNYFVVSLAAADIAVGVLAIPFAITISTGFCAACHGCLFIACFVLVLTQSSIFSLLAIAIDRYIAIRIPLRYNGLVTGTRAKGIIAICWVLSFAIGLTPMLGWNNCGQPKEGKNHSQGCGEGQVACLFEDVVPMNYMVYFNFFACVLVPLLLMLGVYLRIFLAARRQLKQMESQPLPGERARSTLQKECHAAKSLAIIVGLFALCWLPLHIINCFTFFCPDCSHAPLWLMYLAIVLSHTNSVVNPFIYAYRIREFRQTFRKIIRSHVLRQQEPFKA
# T1 sequence (P63092 whole entry partner): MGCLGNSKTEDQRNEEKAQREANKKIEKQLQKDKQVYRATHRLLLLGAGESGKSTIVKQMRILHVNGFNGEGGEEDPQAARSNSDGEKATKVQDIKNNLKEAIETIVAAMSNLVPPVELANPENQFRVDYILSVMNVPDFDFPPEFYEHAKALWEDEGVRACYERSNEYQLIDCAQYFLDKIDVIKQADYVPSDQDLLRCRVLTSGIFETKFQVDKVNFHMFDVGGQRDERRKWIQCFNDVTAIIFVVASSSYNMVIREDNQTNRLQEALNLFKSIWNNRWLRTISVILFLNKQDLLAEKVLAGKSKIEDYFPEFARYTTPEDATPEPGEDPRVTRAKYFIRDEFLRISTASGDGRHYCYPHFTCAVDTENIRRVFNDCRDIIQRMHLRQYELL
# T1 sequence (P62873 whole entry partner): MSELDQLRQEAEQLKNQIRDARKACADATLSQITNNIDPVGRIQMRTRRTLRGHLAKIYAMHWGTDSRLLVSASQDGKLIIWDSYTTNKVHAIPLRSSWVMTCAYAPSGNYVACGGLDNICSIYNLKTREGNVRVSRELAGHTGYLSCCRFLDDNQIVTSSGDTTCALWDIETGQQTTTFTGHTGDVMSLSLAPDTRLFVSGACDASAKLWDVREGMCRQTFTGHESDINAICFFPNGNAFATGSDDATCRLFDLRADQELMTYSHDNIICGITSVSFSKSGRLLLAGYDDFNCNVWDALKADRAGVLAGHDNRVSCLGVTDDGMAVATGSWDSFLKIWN
# T1 sequence (P59768 2-68 partner limits assumed): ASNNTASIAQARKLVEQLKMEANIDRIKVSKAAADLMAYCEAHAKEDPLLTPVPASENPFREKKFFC
# T2 sequence (P29274 1-316 V229C limits assumed): as the sequence (P29274 1-316 V229C limits assumed) above
# T3 sequence (P29274 1-316 V229C limits assumed): as above
Structure (SMILES),effect of cation on specific [3H]NECA binding (A2AR + Gs),effect on active state population (BTFMA-labeled A2AR-V229C),effect on populations of functional states (BTFMA-labeled A2AR-V229C),also measured
"[Ca+2].[Cl-].[Cl-] [Ca^2+, CaCl2]",significantly enhance,detectable increase in the proportion of active states,shift the equilibrium of apo A2AR toward the active states,"effect on [3H]NECA high affinity saturation (A2AR + Gs): enhance maximal specific [^3H]NECA binding and affinity (Kd); EC50 (A2AR + Gs): 0.35 to 0.4 mM; EC50 (A2AR + Gs; listed as Ca2+): 0.35 mM; Ki (apo A2AR-V229C [1]; 50 mM 25Mg2+, increasing CaCl2, 50 µM apo-A2AR-V229C, read-out: Ki of Ca2+ displacement of Mg2+): 98 ± 41 mM"
[Fe+2] [Fe^2+],no positive allosteric effects,did not,,
[Cl-].[K+] [KCl],,,no significant change,
"[Cl-].[Cl-].[Mg+2] [Mg^2+, MgCl2]",significantly enhance,detectable increase in the proportion of active states; also recorded: obvious increase in the active S3′ state population,shift the equilibrium of apo A2AR toward the active states,"effect on [3H]NECA high affinity saturation (A2AR + Gs): enhance maximal specific [^3H]NECA binding and affinity (Kd); EC50 (A2AR + Gs): 0.35 to 0.4 mM; EC50 (A2AR + Gs; listed as Mg2+): 0.35 mM; Kd (apo A2AR-V229C [1]; 50 µM apo-A2AR-V229C, 100 mM Na+, N=1, fitting error, read-out: dissociation constant Kd of MgCl2): 60 ± 15 mM"
"NC(N)=NC(=O)c1nc(Cl)c(N2CCCCCC2)nc1N [HMA, 5-(N,N-hexamethylene)amiloride, reference compound]",,,,"competition with sodium in 23Na NMR binding isotherm (apo A2AR-V229C [2]; 100 mM NaCl, stoichiometric equivalents of HMA): compete with sodium"
"[Cl-].[Na+] [sodium, NaCl]",,,shifts the equilibrium toward the inactive ensemble,"Kd (apo A2AR-V229C [2]; read-out: dissociation constant Kd of sodium, apo A2AR-V229C 50 μM, line width-based isotherm, 10–1000 mM NaCl): 60 mM and ~60 mM"
"[Cl-].[Cl-].[Zn+2] [Zn^2+, ZnCl2]",reduce high affinity binding; also recorded: reduced binding; also recorded: no positive allosteric effects,,,
